Data taken from US12398117B2, “Heteroarylamidopyridinol derivative and pharmaceutical composition comprising same as active ingredient for prevention or treatment of autoimmune disease” (INNOVO THERAPEUTICS INC., priority 2019, dated 2025).

Experiments:
[1] = tested on: adhesion of intestinal epithelial cells (HT-29) and monocytic cells (U937) induced by TNF-α; assay: Inhibition of TNF-α-induced adhesion of monocytes and intestinal epithelial cells; assay type: cell-based, human; settings: Homo sapiens
Method: HT-29 human colon cancer-derived epithelial cells and U937 human-derived monocytes were cultured in RPMI 1640 medium containing 10% FBS and 1% penicillin/streptomycin (PS) in a 37° C., 5% CO2 incubator. When the cells grew more than 80% of the bottom area of the culture flask, they were passaged at a ratio of 1:3 and used in this experiment. HT-29 cells were cultured in a 24-well plate at the density of 2×10^5 cells/cm^2, and the test drug was pretreated in a medium containing 1% FBS and 1% PS for 1 hour. Thereafter, 10 μg/mL of BCECF-AM was treated thereto and reacted at 37° C. for 30 minutes. U937 cells loaded with BCECF and TNF-α (10 ng/mL) were reacted with HT-29 cells previously treated with the test drug at 37° C. for 3 hours. Upon completion of the reaction, the medium was removed, and the culture flask was washed twice with PBS to remove non-adherent U937 cells. In the next step, the cells were lysed by treating with 0.1% Triton X-100 (0.1 M Tris) and reacted at room temperature for 30 minutes. Then, fluorescence was measured and quantified using a fluostar optima microplate reader (BMG Labtechnologies, Germany) (Carvalho et al., 1996; Thapa et al., 2008).

[2] = tested on: DSS-induced acute enteritis mouse model; assay: Oral efficacy in DSS-induced acute enteritis mouse model; assay type: in vivo, C57BL/6 mice; settings: for Body weight recovery rate (%) / Intestinal weight recovery rate (%): acute enteritis (DSS), mouse
Method: C57BL/6 mice aged 7-8 weeks were purchased from OrientBio (Korea), stabilized with general solid feed for 7 days, and then used in this experiment. Feed and water were freely supplied during the experiment period, and the temperature of the breeding room was maintained at 25±1° C. and the relative humidity at 50±10%. Lighting management was controlled in a 12-hour light-dark cycle by an automatic lighting controller.
Enteritis was induced in mice by allowing them to freely ingest drinking water containing 2% DSS salt (M.W. 36,000˜50,000, MP Biomedicals, LLC, OH, USA). For the chronic enteritis model, DSS was administered using a schedule of DSS administration for the first 7 days, administration of normal drinking water for 14 days, repeated administration of DSS for 7 days from the 21st day, and administration of normal drinking water for 7 days. The drug was administered once a day, 6 days a week from the first day of DSS treatment (FIG. 2A). […] In order to measure the dose-dependent therapeutic effect of the drug in the acute enteritis model, DSS was administered for 5 days to induce enteritis, and then the drug was administered for 14 days to measure the degree of recovery and treatment of enteritis (FIG. 3A). The drug was administered orally once daily for […] at a fixed time.
Changes in body weight of each mouse were observed during the DSS and drug administration using a digital mass meter.
The colon of the mouse was extracted, and the length and weight from the anus to the cecum were measured.
The degree of neutrophil infiltration in the tissue was measured by the amount of MPO, a neutrophil marker enzyme. The colon tissue with a size of 1 cm was washed with cold PBS and weighed, to which a lysis buffer (pH7.4, 200 mM NaCl, 5 mM EDTA, 10 mM tris, 10% glycerin, 1 mM PMSF, 1 μg/mL leupeptin and 28 μg/mL aprotinin) was added (500 μL of per 10 mg of tissue weight), and then homogenized using Bead Blaster® D2400 homogenizer (Benchmark Scientific, NJ, USA). […] (HK210, Hycult Biotechnology, Netherlands). The supernatant was added to a 96 well plate (100 μL/well) coated with an anti-mouse MPO antibody, and incubated for 1 hour at room temperature, followed by washing 3 times with a washing buffer. A reconstituted tracer was added to the plate (100 μL/well), which was reacted at room temperature for 1 hour, washed 3 times, and then 100 μL of streptavidin-peroxidase conjugate was added to each well of the plate. The plate was reacted at room temperature for 1 hour, washed, and 100 μl of TMB substrate solution was added to each well of the plate, followed by reaction for 30 minutes. The reaction was terminated by adding 100 μL of a stop solution to each well of the plate, and absorbance was measured at 450 nm. MPO activity means the amount of 1 μM […] at 25° C. for 1 minute. This was calculated as the amount of MPO contained in 1 mL of the colon tissue homogenate.
Tissue staining was performed in the same manner as in the case of hematoxylin/eosin staining of the rat colon tissue, and scoring indexes of mucosal damage and recovery were applied in the same way.

IC50 ([1]; inhibition of adhesion by TNF-α): 300 nM
SMILES: Cc1ccc2[nH]c(C(=O)Nc3nc(C)c(O)c(C)c3C)cc2c1 [Compound X-09, N-(5-hydroxy-3,4,6-trimethylpyridin-2-yl)-5-methyl-1H-indole-2-carboxamide]
inhibition at 1 µM ([1]; test drug 1 μM, TNF-α 10 ng/mL, HT-29/U937, read-out: Inhibitory activity (%)): 82.8%
Morphological observation of colon, therapeutic effect versus tofacitinib ([2]; DSS acute mouse, 10 mg/kg, FIG. 3C): significantly superior to that of the control group treated with 30 mg/kg of tofacitinib
Morphological observation of colon ([2]; DSS acute mouse, X-09 dose range, FIG. 3C): dose-dependent therapeutic efficacy
level of MPO in colon tissue ([2]; DSS acute mouse, X-09 dose range, FIG. 3E): decreased by compound X-09 dose-dependently
Mucosal damage recovery of mouse colon (hematoxylin-eosin score) ([2]; DSS mouse, X-09 dose range, FIG. 4): dose-dependent mucosal damage recovery effect
Body weight recovery rate (%) ([2]; 0.3 mg/kg): 56.5%
Intestinal weight recovery rate (%) ([2]; 0.3 mg/kg): 48.4%
Body weight recovery rate (%) ([2]; 1 mg/kg): 72.0%
Intestinal weight recovery rate (%) ([2]; 1 mg/kg): 76.7%
Body weight recovery rate (%) ([2]; 3 mg/kg): 80.7%
Intestinal weight recovery rate (%) ([2]; 3 mg/kg): 89.0%
Body weight recovery rate (%) ([2]; 10 mg/kg): 88.1%
Intestinal weight recovery rate (%) ([2]; 10 mg/kg): 96.4%
